Molecular target: T1, ABCG2 (Homo sapiens, UniProt Q9UNQ0)
T1 construct: membrane vesicles of High Five insect cells
T1 sequence (Q9UNQ0 1-655): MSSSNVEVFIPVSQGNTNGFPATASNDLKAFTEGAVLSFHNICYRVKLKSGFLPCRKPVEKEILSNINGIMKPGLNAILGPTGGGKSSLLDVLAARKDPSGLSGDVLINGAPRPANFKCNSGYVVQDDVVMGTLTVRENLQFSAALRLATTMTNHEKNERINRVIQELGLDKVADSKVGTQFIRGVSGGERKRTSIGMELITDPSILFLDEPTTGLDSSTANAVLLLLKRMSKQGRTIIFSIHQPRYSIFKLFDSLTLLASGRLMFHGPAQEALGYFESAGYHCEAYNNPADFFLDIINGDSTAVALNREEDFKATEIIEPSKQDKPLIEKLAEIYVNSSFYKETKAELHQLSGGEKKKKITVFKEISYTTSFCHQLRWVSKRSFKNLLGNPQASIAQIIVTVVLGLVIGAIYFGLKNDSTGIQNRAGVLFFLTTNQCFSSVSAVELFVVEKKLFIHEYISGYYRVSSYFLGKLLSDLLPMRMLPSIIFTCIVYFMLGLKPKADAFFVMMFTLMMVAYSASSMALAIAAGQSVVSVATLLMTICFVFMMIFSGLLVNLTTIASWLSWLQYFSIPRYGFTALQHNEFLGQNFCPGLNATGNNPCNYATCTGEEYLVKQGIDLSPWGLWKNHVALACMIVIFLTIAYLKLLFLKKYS
Assay: biochemical

## C=CC(=O)Nc1cccc(Oc2nc(Nc3ccc(N4CCN(C)CC4)cc3)nc3ccsc23)c1 [olmutinib]
  EC50: 2200 nM

— publication PMC6189370, “Olmutinib (BI1482694/HM61713), a Novel Epidermal Growth Factor Receptor Tyrosine Kinase Inhibitor, Reverses ABCG2-Mediated Multidrug Resistance in Cancer Cells” (Frontiers in Pharmacology, 2018)
